From patent publication US10300048B2, “Thiazolidinones as cellular anandamide uptake inhibitors and their use in the treatment of psychiatric or neurological disorders and inflammation, in particular neuroinflammation” (UNIVERSITAT BERN, priority 2014, dated 2019)
Where two headings read alike, the source gives them in different places.

Legend:
[1] = test system: AEA cellular uptake, U937 cells; test: [3H]-AEA cellular uptake inhibition in U937 cells; assay type: cell-based; conditions: for IC50: U937 cells
Experimental: [^3H]-AEA Cellular Uptake
Screening for AEA cellular uptake inhibition was performed in a semi-automated procedure: Pipetting and washing steps were performed by a Biomek3000 laboratory workstation. First, required amounts of U937 cells were centrifuged at 100×g for 5 min and resuspended in RPMI (37° C.) to a final concentration of 2×10^6 cells/mL. Then, 250 μL of cell suspension (0.5×10^6 cells per sample) were transferred into AquaSil™ silanized glass vials (Chromacol 1.1-MTV) in 96-well format. After addition of 5 μL vehicle (DMSO) or compounds the cells were incubated at 37° C. for 15 min. As positive controls OMDM-2 and UCM707 were used at 10 μM in each run. The ETI-T compounds were measured at up to 7 concentrations in triplicates from 100 pM-100 μM. After pre-incubation, a mixture of 0.5 nM[ethanolamine-1-^3H]-AEA, (60 Ci/mmol) and 99.5 nM of cold AEA (final 100 nM) was added and samples were incubated at 37° C. for another 15 min. The reaction was stopped by rapid filtration over UniFilter-96 GF/C filters (PerkinElmer) pre-soaked with PBS 0.25% BSA. Cells were washed three times with 100 μL ice-cold PBS buffer containing 1% fatty acid free BSA. After drying, 45 μL MicroScint 20 scintillation cocktail (PerkinElmer, Waltham, Mass., US) was added to the wells and the plate was sealed. Radioactivity was measured by liquid scintillation counting on a PerkinElmer Wallac Trilux MicroBeta 1450 during 2 min. Non-specific binding of [^3H]AEA (100 nM) to the glass vials was never higher than 10%. IC50 values were calculated by GraphPad® by non-linear regression using the built-in log(inhibitor) vs. response-variable slope (four parameters) function.
(§1) Statistical analysis and IC50 values were determined using GraphPad® Prism 5.0 (GraphPad® Software, San Diego, Calif., US). Inhibition curves were obtained by non-linear regression using the built-in log(inhibitor) vs. response-variable slope (four parameters) function. Results were calculated as % of vehicle control of the corresponding fraction (cells, aqueous phase) if not mentioned else. In vivo results are shown in absolute values and were analyzed by a one-way ANOVA following a Tukey's multiple comparison test or student's t-test. If not indicated else the results were compared vs. vehicle (CTRL). *** P<0.001, ** P<0.01, * P<0.05, ns=not significant P>0.05.

[2] = target: hCB1 receptor (Homo sapiens (Human), UniProt P21554); test: Radioligand CB receptor binding, [3H]-CP55,940 displacement on CHO-K1 hCB1 membranes; conditions: for CB1 receptor binding (%) at 10 µM: Table 4; for CB1 receptor binding % binding at 10 μM: Table 3
Experimental: Stably transfected CHO-K1 cells expressing hCB1 or hCB2 receptors (Gertsch et al., 2008, Proc Natl Acad Sci 105, 9099-104) were cultured in T150 cm^2 flasks up to 90% confluence. The medium was removed and cells were washed twice with PBS, 37° C. 10 mL of PBS was added and the cells were scraped and transferred into a falcon tube following homogenization by a Polytron PT1300D for 5 min at 30 krpm. Then, the homogenate was centrifuged (1400×g, 5 min) to remove debris. The supernatant was subjected to ultracentrifugation (64000×g, 45 min, 4° C.) to separate cytosolic from the membrane fraction. The supernatant was discharged and the pellet resuspended in PBS by sonication. Protein quantity was determined by BCA assay (Thermo Scientific) and aliquots of 500 μL were stored at −80° C. until use.
Radioligand CB Receptor Binding
Binding properties of ETI-T compounds to hCB1 or hCB2 receptors were performed as previously reported in a [^3H]-CP55,940 displacement assay (Gertsch et al., 2008, Proc Natl Acad Sci 105, 9099-104). WIN 55,212-2 was used as positive control. In brief, 20 μg protein of CHO-K1 hCB1 or hCB2 membrane preparations were thawed on ice and resuspended in a final volume of 500 μL binding buffer (50 mM Tris-HCl, 2.5 mM EDTA, 5 mM MgCl2, 0.5% fatty acid free BSA, pH 7.4) in silanized glass vials. [^3H]-CP55,940 (168 Ci/mmol) (PerkinElmer, Waltham, Mass., US) was added to a final concentration of 0.5 nM followed by the addition of competitors or vehicle in 5 μL DMSO. Membrane binding was equilibrated for 2 h at room temperature (25° C.). Samples were filter through a 0.1% polyethylenimine pre-soaked UniFilter®-96 GF/B plate (PerkinElmer) and washed twelve times with 167 μL ice-cold assay-buffer. The plate was dried, bottom sealed and 45 μL MicroScint 20 scintillation cocktail (PerkinElmer) were added before measured on a PerkinElmer 1450 Microbeta TRILUX liquid scintillation counter. Unspecific binding was determined by WIN 55,212-2, 10 μM and subtracted from all values. […].

[3] = target: FAAH (Homo sapiens (Human), UniProt O00519); test: FAAH activity: hydrolysis of [3H]-AEA in U937 cell homogenates; assay type: biochemical; conditions: for IC50: U937 cell homogenate, read-out: FAAH inhibition IC50
Experimental: Hydrolysis of [^3H]-AEA by FAAH was determined as previously described in cell homogenates of U937 cells (0.18 mg protein) (Omeir et al., 1999, Biochem Biophys Res Commun, 264, 316-20; Mor et al., 2004, J Med Chem, 47, 4998-5008). Protein amounts of cell homogenates corresponded to 0.5×10^6 cells (U937), to assure best possible comparability of IC50 values as used for the AEA cellular uptake assays. URB597 was used as positive control. Protein quantification was performed using a BCA assay (Thermo Scientific). Enzyme activity was assessed by addition of vehicle or compounds in 10 μL DMSO to 490 μL homogenate in 10 mM Tris HCl, 1 mM EDTA, 0.1% (w/v) BSA fatty acid free, pH=8 and incubation for 15 min at 37° C. After, a mixture of AEA plus [ethanolamine-1-^3H]-AEA (0.5 nM) at final 100 nM was added to the homogenates and incubated for 15 min at 37° C. The reaction was stopped by addition of 1 mL ice-cold CHCl3:MeOH (1:1) followed by vigorous vortexing. Phase separation was achieved by centrifugation at 10′000×g at 4° C. for 10 min. Radioactivity of the separated aqueous phase (upper phase) containing [^3H-ethanolamine] or [^3H-glycerol] was measured by liquid scintillation counting on a Tri-Carb 2100 TR liquid scintillation analyzer after addition of 3.5 mL Ultima Gold scintillation cocktail (PerkinElmer Life Sciences). Results are expressed as hydrolysis of tritium substrate in percent of vehicle treated control. IC50 values were calculated by GraphPad®. Data are reported as means of n=3 independent experiments performed in triplicates.
as §1

[4] = Homo sapiens, U-937, Table 1, 100 nM AEA, read-out: AEA uptake inhibition IC50
[5] = Homo sapiens, U-937, Table 4, read-out: AEA uptake IC50

Sequence of hCB1 receptor (P21554 whole entry): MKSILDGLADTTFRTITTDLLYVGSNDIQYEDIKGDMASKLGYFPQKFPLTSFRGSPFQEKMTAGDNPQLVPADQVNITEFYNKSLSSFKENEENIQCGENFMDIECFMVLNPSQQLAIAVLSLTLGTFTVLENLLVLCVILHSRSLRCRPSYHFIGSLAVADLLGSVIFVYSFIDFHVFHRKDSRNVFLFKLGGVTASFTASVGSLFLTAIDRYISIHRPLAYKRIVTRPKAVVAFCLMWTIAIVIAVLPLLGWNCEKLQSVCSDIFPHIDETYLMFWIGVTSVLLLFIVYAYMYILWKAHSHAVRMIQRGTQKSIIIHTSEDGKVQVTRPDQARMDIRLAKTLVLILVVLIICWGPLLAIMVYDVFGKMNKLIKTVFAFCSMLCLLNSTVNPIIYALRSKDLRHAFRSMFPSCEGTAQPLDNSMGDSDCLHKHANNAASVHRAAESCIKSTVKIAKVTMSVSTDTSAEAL
Sequence of FAAH (O00519 whole entry): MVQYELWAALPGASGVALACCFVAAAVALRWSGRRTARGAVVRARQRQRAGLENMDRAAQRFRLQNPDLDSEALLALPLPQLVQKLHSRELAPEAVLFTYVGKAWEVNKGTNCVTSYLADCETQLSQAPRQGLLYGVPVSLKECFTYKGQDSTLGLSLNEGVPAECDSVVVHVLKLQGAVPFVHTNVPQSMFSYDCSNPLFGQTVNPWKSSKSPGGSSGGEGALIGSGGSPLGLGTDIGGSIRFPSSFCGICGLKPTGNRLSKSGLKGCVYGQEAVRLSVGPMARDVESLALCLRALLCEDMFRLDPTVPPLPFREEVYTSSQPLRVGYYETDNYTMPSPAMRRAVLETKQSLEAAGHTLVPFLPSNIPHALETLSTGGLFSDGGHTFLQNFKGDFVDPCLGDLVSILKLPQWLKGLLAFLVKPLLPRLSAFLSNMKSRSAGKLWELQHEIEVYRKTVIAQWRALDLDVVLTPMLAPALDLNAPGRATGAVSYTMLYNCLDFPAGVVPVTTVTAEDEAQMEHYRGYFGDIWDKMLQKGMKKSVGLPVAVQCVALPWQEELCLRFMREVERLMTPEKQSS

SMILES	IC50 [1, 4] [nM]	IC50 [1, 5] [nM]	other results
Cc1ccc(/N=C2\S/C(=C\c3ccc(O)cc3)C(=O)N2c2ccc(C)cc2)cc1 [Compound 1]	68	68	CB1 receptor binding (%) at 10 µM [2]: 33%
CCOc1cc(/C=C2\S/C(=N\c3ccc(F)cc3)N(c3ccc(F)cc3)C2=O)ccc1O [Compound 2]	74	74	FAAH inhibition (in words) [3]: Lack of FAAH inhibition; IC50 ([3]; Table 2): 56200 nM; IC50 ([3]; Table 4): 56200 nM; apparent selectivity for AEA uptake inhibition over FAAH inhibition ([1]; ratio of FAAH IC50 to AEA uptake IC50): ~760 fold; CB1 receptor binding % binding at 10 μM [2]: 33%; CB1 receptor binding (%) at 10 µM [2]: 33%
CCOc1cc(/C=C2\S/C(=N\c3cc(Cl)ccc3C)NC2=O)ccc1O [Compound 3]			IC50 ([1]; Table 1, 100 nM AEA, read-out: AEA uptake inhibition IC50): 138 nM
C=CCCc1cc(/C=C2\SC(=NCC)N(CC)C2=O)cc(OCC)c1O [Compound 4]	145	145	
C#CCOc1ccc(/C=C2\S/C(=N\c3ccc(OC)cc3)N(CCc3c[nH]c4ccccc34)C2=O)cc1 [Compound 7]	266	266	
CCN1C(=O)/C(=C/c2ccc(O)cc2)S/C1=N\c1ccc(F)cc1 [Compound 8]	268	268	
CCN1C(=O)/C(=C/c2ccc(C)cc2)S/C1=N\c1ccc(OC)cc1 [Compound 9]	334	334	
CCCN1C(=O)/C(=C/c2ccc(N(C)C)cc2)S/C1=N\c1ccccc1 [Compound 10]	355	355	IC50 ([3]; Table 4): 1050 nM; CB1 receptor binding (%) at 10 µM [2]: 29%
O=C1/C(=C/c2ccc(O)cc2)S/C(=N\c2ccccc2)N1Cc1ccco1 [Compound 11]	434	434	
CCOc1cc(/C=C2\S/C(=N\c3ccc(C)cc3)N(c3ccc(C)cc3)C2=O)ccc1O [Compound 12]	484	484	IC50 ([3]; Table 2): > 100000 nM; CB1 receptor binding % binding at 10 μM [2]: 35%; CB1 receptor binding (%) at 10 µM [2]: 35%
Cc1ccsc1/C=C1\S/C(=N\c2ccccc2)N(C(C)C)C1=O [Compound 13]	510	510	
COc1ccc(/C=C2\S/C(=N\c3ccccc3)N(c3ccccc3)C2=O)cc1 [Compound 14]	542	542	
CCCOc1cc(/C=C2\S/C(=N\c3ccccc3C)N(c3ccccc3C)C2=O)ccc1O [Compound 15]	553	553	
C=CCc1cc(/C=C2\S/C(=N\c3ccc(C(=O)OC)cc3)N(C)C2=O)cc(OCC)c1O [Compound 16]	571	571	IC50 ([3]; Table 2): > 100000 nM; CB1 receptor binding % binding at 10 μM [2]: 15%; CB1 receptor binding (%) at 10 µM [2]: 15%
CCN1C(=O)/C(=C/c2cc(I)c(O)c(OC)c2)S/C1=N\c1ccccc1 [Compound 17]	594	594	
COc1ccc(/N=C2\S/C(=C\c3ccc(O)cc3)C(=O)N2c2ccc(OC)cc2)cc1 [Compound 18]	597	597	
COc1ccc(/C=C2\S/C(=N\c3ccc(C)cc3)N(c3ccc(C)cc3)C2=O)cc1 [Compound 19]	602	602	
C=CCc1cc(/C=C2\S/C(=N\c3ccccc3)N(Cc3ccco3)C2=O)cc(OC)c1O [Compound 20]	661	661	
COc1cc(/C=C2\S/C(=N\c3ccc(C)cc3)N(c3ccc(C)cc3)C2=O)ccc1O [ETI-T-008 Jspg]		1250	IC50 ([3]; Table 4): 5370 nM
COc1ccc(C=C2SC(=Nc3ccc(F)cc3)N(c3ccc(F)cc3)C2=O)cc1OC [ETI-T-343]		1590	
C=CCc1cc(/C=C2/S/C(=N/c3ccc(C)cc3)N(C)C2=O)cc(OCC)c1O [ETI-T-399]		1320	CB1 receptor binding (%) at 10 µM [2]: 41%
CCCCN1C(=O)/C(=C/c2cc(Br)c(O)c(OCC)c2)S/C1=N\c1ccccc1 [ETI-T-401]		1580	CB1 receptor binding (%) at 10 µM [2]: 42%
CCOc1cc(/C=C2\S/C(=N\c3ccccc3)N(CCOC)C2=O)ccc1O [ETI-T-410]		1300	
CCCN1C(=O)/C(=C/c2ccc3c(c2)OCO3)S/C1=N\c1ccc(OC)cc1 [ETI-T-426]		1460	CB1 receptor binding (%) at 10 µM [2]: 60%
CCOc1cc(/C=C2/S/C(=N\c3ccc(C)c(Cl)c3)N(c3ccc(C)c(Cl)c3)C2=O)ccc1O [ETI-T-435]		1430	
CCOc1cc(/C=C2/S/C(=N/c3ccc(F)cc3)N(c3ccc(F)cc3)C2=O)ccc1O [ETI-T-438]		1350	
Cc1ccc(/N=C2\S/C(=C\c3ccc(O)c(Cl)c3)C(=O)N2c2ccc(C)cc2)cc1 [ETI-T-444]		1150	
CCOc1cc(/C=C2/S/C(=N/c3ccc(OC)cc3)N(c3ccc(OC)cc3)C2=O)ccc1O [ETI-T-445]		1050	
